Like-named read-outs stand apart in the source and are kept apart here.

What all share (format): cell-based
The test system of experiment [1] is HT-29. Put plainly: cell proliferation assay, HT-29. Conditions: Homo sapiens; HT-29, Colon. As to the method:
(§1) Cells were seeded in 96-well plates and maintained for 5 days in the presence of 0.5 to 20 μM of individual compound, and cell proliferation was measured by the sulforhodamine B (SRB) assay as described previously (see, for example, Palakurthi, S. S. et al. Cancer Research 2000, 60(11), 2919-2925). Briefly, at the end of a 5-day treatment, cells were fixed in 10% cold trichloroacetic acid. Cell number was estimated by measuring the remaining bound dye of sulforhodamine B after washing. The percentage of growth was calculated by using the equation: 100×[(T−T0)/(C−T0)], where T and C represent the absorbance in treated and control cultures at Day 5, and T0 at time zero, respectively. If T is less than T0, cell death has occurred and can be calculated from 100×[(T−T0)/T0].

Experiment [2] concerns T47D. Put plainly: cell proliferation assay, T47D. To be noted: Homo sapiens, Breast. As to the method: as §1
In experiment [3] the test system is PC-3. Put plainly: cell proliferation assay, PC-3. Conditions: Homo sapiens; PC-3, Prostate. As to the method: as §1
Experiment [4] has as its system MCF-7 human breast cancer cells. Put plainly: cell proliferation assay, MCF-7. Conditions: MCF7, MCF-7, Breast. The procedure:
as §1

In experiment [5] the test system is CRL-2813 human melanoma cancer cells transfected with HRI-targeting or non-targeting siRNA. In words: cell proliferation (SRB) assay after HRI knockdown. Conditions: CRL-2813 cells, FIG. 10. As to the method: as §1
Cell proliferation is a meaningful read-out for determining the specificity of a compound as it captures both on-target and off-target effects of the compound under study. […] If these compounds specifically activate HRI and this activity is required for the inhibition of cell proliferation, then reducing the expression of HRI should blunt their effect on cell proliferation. For this purpose, expression of HRI was knocked down in CRL-2813 human melanoma (about 70% knockdown efficiency) and MCF-7 human breast cancer cells (about 90% knockdown efficiency). These two cell lines were chosen because the HRI knockdown efficiency is lower in CRL-2813 than in MCF-7 cells providing a sort of dose-response data that correlates knockdown efficiency with the resistance of cells to inhibition of cell proliferation. […] Referring to FIG. 5A, CRL-2813 human melanoma cancer cells, and (FIG. 5B) MCF-7 human breast cancer cells were transfected with HRI targeted or non-targeted siRNA, treated with the indicated concentrations of I-6p and cell proliferation was measured by SRB assay. Calculated IC50 for all four compounds tested in CRL-2813 human melanoma cancer cells and MCF-7 human breast cancer cells transfected with non-target siRNA control (NTC) or HRI is shown in FIG. 5C and FIG. 5D, respectively. The experiment was conducted in triplicate and each experiment was independently performed three times. Data are shown as Mean±S.E.M. *NTC=non-target siRNA control.
Referring to FIG. 8, CRL-2813 human melanoma cancer cells were transfected with HRI targeted or non-targeted siRNA, treated with the indicated concentrations of (A) I-14, (B) I-15, (C) III-4 and (D) III-5 and cell proliferation was measured by SRB assay. Calculated IC50 for all four compounds tested in CRL-2813 human melanoma cancer cells transfected with non-target siRNA control (NTC) or HRI is shown in (E). The experiment was conducted in triplicate and each experiment was independently performed three times. Data are shown as Mean±S.E.M. *NTC=non-target siRNA control, IC50=effective dose of drug that inhibit cell proliferation by 50%.
In general, if the affinity of compounds for their molecular target is increased this should result in higher specificity of the compounds in the cell proliferation assay. […] These five compounds, two with average and three with high potency, were tested in cell proliferation assay using CRL-2813 cells transfected with non-targeted siRNA or HRI-targeted siRNA as described above.

Experiment [6] has as its system HEP B3. In words: cell proliferation assay, HEP B3. Conditions: HEP B3, Liver. The procedure:
as §1

Experiment [7] relates to ASPC-1. In words: cell proliferation assay, ASPC-1. Conditions: Homo sapiens, ASPC1; ASPC-1, Pancreas; read-out: IC50. As to the method:
as §1
The compounds shown in Table 7 were evaluated using for activation of HRI using the dual luciferase surrogate eIF2α phosphorylation assay (see, for example, Chen, T. et al. Nature Chem Biol 2011, 7, 610-616) and for inhibition of cell proliferation using the SRB assay (see, for example, Palakurthi, S. S. et al. Cancer Res 2000, 60, 2919-2925) as described above.

The test system of experiment [8] is CRL-2813 human melanoma cancer cells. Put plainly: cell proliferation (SRB) assay, CRL-2813. Conditions: Homo sapiens, CRL2813. In short, it runs like this: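 Cells exposed 5 days to 0.5–20 μM compound, then TCA-fixed and stained with sulforhodamine B. Growth as 100×[(T−T0)/(C−T0)] from absorbance of treated, control and time-zero cultures; cell death as 100×[(T−T0)/T0] where T is below T0.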

In experiment [9] the test system is Huh-7. Put plainly: cell proliferation assay, Huh-7. To be noted: Homo sapiens; Huh-7, Liver. The procedure: as §1
The subject of experiment [10] is RAMOS. In words: cell proliferation assay, RAMOS. Conditions: Homo sapiens, Lymphoma. As to the method: as §1
Experiment [11] relates to ACHN. Put plainly: cell proliferation assay, ACHN. Conditions: Homo sapiens, Kidney. As to the method: as §1
Experiment [12] has as its system BAF-3. In words: cell proliferation assay, BAF-3. Conditions: Mus musculus, BaF3; BAF-3, Leukemia. As to the method:
as §1

`O=C(Nc1cccc(C(F)(F)F)c1)NC1CCC(Oc2ccc(OC(F)(F)F)cc2)CC1` (stereo not shown) [Compound I-17, 1-(4-(4-(trifluoromethoxy)phenoxy)cyclohexyl)-3-(3-(trifluoromethyl)phenyl)urea]: the IC50 amounted to 2700 nM in experiment [1]; 1200 nM in experiment [2]; 2900 nM in experiment [3]; 1300 nM in experiment [4]; 1800 nM in [6]; 2400 nM in experiment [7]. Moreover, the IC50 worked out at 690 ± 100 nM in experiment [8] (CRL-2813, Table 8, Mean IC50±S.E.M., read-out: IC50 of compounds); 690 ± 100 nM in [8] (cell proliferation assay, Table 3, cell line not named, values equal CRL-2813 values of Table 8, read-out: IC50); 2100 nM in experiment [9]; 800 nM in experiment [10]; 1400 nM in [11]; 800 nM in [12]. In addition, the “fold higher IC50 values in cells transfected with HRI-targeting siRNA vs. non-targeting siRNA” value in experiment [5] was approximately 6 fold.

Source of the values: patent US20160318856A1, “Substituted Urea eIF2alpha Kinase Activators” (THE BRIGHAM AND WOMEN'S HOSPITAL, INC., priority 2013, published 2016).
